The term IC50 denotes the concentration that inhibits the measured activity by half. Lower therefore signals greater potency in that assay.

Each structure is given as a SMILES string. Read-outs that look alike come from different tables or passages of the source.

Our source for the IC50 values is patent US11629139B2 (priority 2017, dated 2023).

This test concerns vesicular stomatitis virus particles (VSV) pseudotyped with EboV Zaire GP. In words: microbe, parasite or virus in culture. The format is cell-based.

`O=C(CC12CC3CC(CC(C3)C1)C2)NCC(=O)N1CCN(Cc2cc(Cl)cc(C(F)(F)F)c2)CC1` [Compound 1326, 2-((1R,3R,5S)-Adamantan-1-yl)-N-(2-(4-(3-chloro-5-(trifluoromethyl)benzyl)piperazin-1-yl)-2-oxoethyl)acetamide] had an IC50 (Vesicular stomatitis virus) of 920 nM.

For the setting “Vesicular stomatitis virus”, `COC(=O)c1ccc(COc2ccccc2CN2CCN(C(=O)CNC(=O)C3(C)CCC(F)(F)CC3)CC2)cc1` [Compound 1328, Methyl 4-((2-((4-((4,4-difluoro-1-methylcyclohexane-1-carbonyl)glycyl)piperazin-1-yl)methyl)phenoxy)methyl)benzoate] displayed an IC50 of 250 nM.

Turning to `O=C(CC1CCC(F)(F)CC1)NCC(=O)N1CCN(Cc2cc(Cl)cc(F)c2F)CC1` [Compound 1369, N-(2-(4-(5-Chloro-2,3-difluorobenzyl)piperazin-1-yl)-2-oxoethyl)-2-(4,4-difluorocyclohexyl)acetamide], the IC50 (Vesicular stomatitis virus) is more than 2000 nM.

Regarding `COC(=O)c1ccc(COc2ccccc2CN2CCN(C(=O)CNC(=O)C3(F)CC3)CC2)cc1` [Compound 1376, Methyl 4-((2-((4-((1-fluorocyclopropane-1-carbonyl)glycyl)piperazin-1-yl)methyl)phenoxy)methyl)benzoate], the IC50 (Vesicular stomatitis virus) was more than 2000 nM.

Turning to `COC(=O)c1ccc(COc2ccccc2CN2CCN(C(=O)CNC(=O)CC34CC5CC(C3)CC(C(=O)O)(C5)C4)CC2)cc1` [Compound 1277, (1s,3r,5R,7S)-3-(2-((2-(4-(2-((4-(Methoxycarbonyl)benzyl)oxy)benzyl)piperazin-1-yl)-2-oxoethyl)amino)-2-oxoethyl)adamantane-1-carboxylic acid], the IC50 (Vesicular stomatitis virus) is more than 2000 nM.

In turn, `O=C(CC12CC3CC(CC(C3)C1)C2)NCC(=O)N1CCN(Cc2cc(Br)ccc2O)CC1` [Compound 1026] registered a 50% inhibitory concentration (IC50) (Vesicular stomatitis virus) of 300 to 500 nM.

Regarding `Nc1ccc(Cl)cc1CN1CCN(C(=O)CNC(=O)C2CC23CCC3)CC1` (stereo not drawn) [Compound 1409, N-(2-(4-(2-Amino-5-chlorobenzyl)piperazin-1-yl)-2-oxoethyl)spiro[2.3]hexane-1-carboxamide], inhibition was half-maximal at 2900 nM (IC50).

As for `COC(=O)c1ccc(COc2ccc(Cl)cc2CN2CCN(C(=O)CNC(=O)CC3(C)CCCCC3)CC2)cc1` [Compound 1334, Methyl 4-((4-chloro-2-((4-((2-(1-methylcyclohexyl)acetyl)glycyl)piperazin-1-yl)methyl)phenoxy)methyl)benzoate], the IC50 (Vesicular stomatitis virus) was determined as 19 nM.

For the molecule `COC(=O)c1cccc(Oc2cc(Cl)cc(CN3CCN(C(=O)CNC(=O)CC45CC6CC(CC(C6)C4)C5)CC3)c2)c1` [Compound 1322, Methyl 3-(3-((4-((2-((1R,3R,5S)-adamantan-1-yl)acetyl)glycyl)piperazin-1-yl)methyl)-5-chlorophenoxy)benzoate], the IC50 (Vesicular stomatitis virus) was 11 nM.

In turn, `[2H]C([2H])(c1cc(Cl)ccc1NCC)N1CCN(C(=O)CNC(=O)C2CC23CCC(F)(F)CC3)CC1` (stereo not drawn) [Compound 1534] had an IC50 (Vesicular stomatitis virus) of 200 nM.

`O=C(CC1CCC(F)(F)CC1)NCC(=O)N1CCN(Cc2cccc3ccncc23)CC1` [Compound 1427] displayed an IC50 (Vesicular stomatitis virus) of 2450 nM.

Take `N#Cc1ccc(COc2ccc(Cl)cc2CN2CCN(C(=O)CNC(=O)C3CC34CCC(F)(F)CC4)CC2)nc1` (stereo not drawn) [Compound 1622, 6,6-Difluoro-spiro[2.5]octane-1-carboxylic acid (2-{4-[5-chloro-2-(5-cyano-pyridin-2-ylmethoxy)-benzyl]-piperazin-1-yl)-2-oxo-ethyl)-amide]: where the note is “Vesicular stomatitis virus”, the half-inhibitory concentration (IC50) was found to be 19 nM.

In turn, `COC(=O)c1ccc(COc2ccc([N+](=O)[O-])cc2CN2CCN(C(=O)CNC(=O)CC34CC5CC(CC(C5)C3)C4)CC2)cc1` [Compound 1113] gave an IC50 (Vesicular stomatitis virus) of less than 2000 nM.

In turn, `CN(C)C(=O)c1ccc(COc2ccccc2CN2CCN(C(=O)CNC(=O)CC34CC5CC(CC(C5)C3)C4)CC2)cc1` [Compound 1802] registered an IC50 (Vesicular stomatitis virus) of 3300 nM.

Regarding `Nc1ccc(CN2CCN(C(=O)CNC(=O)CC34CC5CC(CC(C5)C3)C4)CC2)cc1Cl` [Compound 1250], where the note is “Vesicular stomatitis virus”, the IC50 is 800 nM.

As for `CS(=O)(=O)c1ccc(COc2ccc(F)cc2CN2CCN(C(=O)CNC(=O)CC34CC5CC(CC(C5)C3)C4)CC2)cc1` [Compound 1443], the IC50 (Vesicular stomatitis virus) came out at 4.5 nM.

In the case of `N#Cc1cc(Br)cc(CN2CCN(C(=O)CNC(=O)CC34CC5CC(CC(C5)C3)C4)CC2)c1` [Compound 1348, 2-((1R,3R,5S)-Adamantan-1-yl)-N-(2-(4-(3-bromo-5-cyanobenzyl)piperazin-1-yl)-2-oxoethyl)acetamide], where the note is “Vesicular stomatitis virus”, the IC50 amounted to 1300 nM.

On to `O=C(CC12CC3CC(CC(C3)C1)C2)NCC(=O)N1CCN(Cc2cc(Br)cc([N+](=O)[O-])c2)CC1` [Compound 1340, 2-((1R,3R,5S)-Adamantan-1-yl)-N-(2-(4-(3-bromo-5-nitrobenzyl)piperazin-1-yl)-2-oxoethyl)acetamide], for which, where the note is “Vesicular stomatitis virus”, the IC50 is 1270 nM.

`O=C(CC1CCC(F)(F)CC1)NCC(=O)N1CCN(Cc2cccc(Oc3ccccn3)c2)CC1` [Compound 1451] gave an IC50 (Vesicular stomatitis virus) of more than 5000 nM.

In turn, `COC(=O)c1ccc(COc2ccccc2CN2CCN(C(=O)CNC(=O)NC3CCC(F)(F)CC3)CC2)cc1` [Compound 1320, Methyl 4-((2-((4-(((4,4-difluorocyclohexyl)carbamoyl)glycyl)piperazin-1-yl)methyl)phenoxy)methyl)benzoate] showed an IC50 (Vesicular stomatitis virus) of more than 2000 nM.

For the setting “Vesicular stomatitis virus”, `O=C(CC1CCC(F)(F)CC1)NCC(=O)N1CCN(Cc2cc(Cl)cc(Cl)c2O)CC1` [Compound 1401, N-(2-(4-(3,5-Dichloro-2-hydroxybenzyl)piperazin-1-yl)-2-oxoethyl)-2-(4,4-difluorocyclohexyl)acetamide] yielded an IC50 of 3700 nM.

`O=C(Cc1cccc2ccccc12)NCC(=O)N1CCN(Cc2ccccc2OCc2ccc(Br)cc2)CC1` [Compound 1136]: the IC50 (Vesicular stomatitis virus) was more than 2000 nM.

`Nc1ccc(Cl)cc1CN1CCN(C(=O)CNC(=O)C2CC23CCCC3)CC1` (stereo not drawn) [Compound 1410, N-(2-(4-(2-Amino-5-chlorobenzyl)piperazin-1-yl)-2-oxoethyl)spiro[2.4]heptane-1-carboxamide] displayed a half-inhibitory concentration (IC50) of 220 to 490 nM.

With `O=C(NCC(=O)N1CCN(Cc2cc(Cl)cc3cccnc23)CC1)C1CC12CCC(F)(F)CC2` (stereo not drawn) [Compound 1405, N-(2-(4-((6-Chloroquinolin-8-yl)methyl)piperazin-1-yl)-2-oxoethyl)-6,6-difluorospiro[2.5]octane-1-carboxamide], the IC50 (Vesicular stomatitis virus) is 70 to 260 nM.

Molecule `O=C(CC12CC3CC(CC(C3)C1)C2)NCC(=O)N1CCN(Cc2cc(OC3CC3)ccc2F)CC1` [Compound 1354, 2-((1R,3R,5S)-Adamantan-1-yl)-N-(2-(4-(5-cyclopropoxy-2-fluorobenzyl)piperazin-1-yl)-2-oxoethyl)acetamide] registered an IC50 (Vesicular stomatitis virus) of more than 2000 nM.

In the case of `O=C(CC12CC3CC(CC(C3)C1)C2)NCC(=O)N1CCN(Cc2cc(Cl)ccc2Br)CC1` [Compound 1351, 2-((1R,3R,5S)-Adamantan-1-yl)-N-(2-(4-(2-bromo-5-chlorobenzyl)piperazin-1-yl)-2-oxoethyl)acetamide], the IC50 (Vesicular stomatitis virus) was 1100 nM.

For `CC(C)(CC(=O)NCC(=O)N1CCN(Cc2ccccc2OCc2ccc(Br)cc2)CC1)C1CCCCC1` [Compound 1138], the IC50 (Vesicular stomatitis virus) was more than 2000 nM.

`COC(=O)c1ccc(COc2ccc(Cl)cc2CN2CCN(C(=O)CNC(=O)C3CC3(F)F)CC2)cc1` (stereo not drawn) [Compound 1357, Methyl 4-((4-chloro-2-((4-((2,2-difluorocyclopropane-1-carbonyl)glycyl)piperazin-1-yl)methyl)phenoxy)methyl)benzoate] returned a half-inhibitory concentration (IC50) (Vesicular stomatitis virus) of 500 nM.

In turn, `NC(=O)c1ccc(Br)cc1CN1CCN(C(=O)CNC(=O)CC23CC4CC(CC(C4)C2)C3)CC1` [Compound 1364, 2-((4-((2-((1R,3R,5S)-Adamantan-1-yl)acetyl)glycyl)piperazin-1-yl)methyl)-4-bromobenzamide] came in with an IC50 (Vesicular stomatitis virus) of 1900 nM.

Regarding `CCC1(CC)CC1C(=O)NCC(=O)N1CCN(Cc2cc(Cl)ccc2N)CC1` (stereo not drawn) [Compound 1411, N-(2-(4-(2-amino-5-chlorobenzyl)piperazin-1-yl)-2-oxoethyl)-2,2-diethylcyclopropane-1-carboxamide], inhibition (Vesicular stomatitis virus) was half-maximal at 140 nM (IC50).

Molecule `CC(=O)N1CCCC(Oc2cc(F)cc(CN3CCN(C(=O)CNC(=O)C4CC45CCC(F)(F)CC5)CC3)c2)C1` (stereo not drawn) [Compound 1453] displayed an IC50 (Vesicular stomatitis virus) of more than 5000 nM.

On to `O=C(CC12CC3CC(C1)CC(n1cncn1)(C3)C2)NCC(=O)N1CCN(Cc2ccccc2OCc2ccc(Br)cc2)CC1` [Compound 1246], for which the IC50 (Vesicular stomatitis virus) is less than 2000 nM.

As for `COC(=O)c1ccc(COc2ccc(Cl)cc2CN2CCN(C(=O)CNC(=O)CC3CCC(F)(F)CC3)CC2)cc1` [Compound 1333, Methyl 4-((4-chloro-2-((4-((2-(4,4-difluorocyclohexyl)acetyl)glycyl)piperazin-1-yl)methyl)phenoxy)methyl)benzoate], for the setting “Vesicular stomatitis virus”, 15 nM corresponded to half-maximal inhibition (IC50).

Molecule `COC(=O)c1ccc(COc2ccc(F)cc2CN2CCN(C(=O)CNC(=O)CC3(C)CCCCC3)CC2)cc1` [Compound 1336, Methyl 4-((4-fluoro-2-((4-((2-(1-methylcyclohexyl)acetyl)glycyl)piperazin-1-yl)methyl)phenoxy)methyl)benzoate] showed an IC50 (Vesicular stomatitis virus) of 51 nM.

In turn, `CS(=O)(=O)c1ccc(Oc2cc(Cl)cc(CN3CCN(C(=O)CNC(=O)C4CC45CCC(F)(F)CC5)CC3)c2)cc1` (stereo not drawn) [Compound 1461] gave an IC50 (Vesicular stomatitis virus) of 150 nM.

With `CNC(=O)c1ccc(COc2ccccc2CN2CCN(C(=O)CNC(=O)CC34CC5CC(CC(C5)C3)C4)CC2)cc1` [Compound 1801], the IC50 (Vesicular stomatitis virus) came out at 2100 nM.

As for `Nc1ccc(Cl)cc1CN1CCN(C(=O)CNC(=O)CC23CC4CC(CC(C4)C2)C3)CC1` [Compound 1321, 2-((1R,3R,5S)-Adamantan-1-yl)-N-(2-(4-(2-amino-5-chlorobenzyl)piperazin-1-yl)-2-oxoethyl)acetamide], the IC50 (Vesicular stomatitis virus) was determined as 90 nM.

For the molecule `COC(=O)c1ccc(COc2ccccc2CN2CCN(C(=O)CNC(=O)OC3CCC(F)(F)CC3)CC2)cc1` [Compound 1319, Methyl 4-((2-((4-((((4,4-difluorocyclohexyl)oxy)carbonyl)glycyl)piperazin-1-yl)methyl)phenoxy)methyl)benzoate], the IC50 (Vesicular stomatitis virus) was found to be 310 nM.

Where the note is “Vesicular stomatitis virus”, `CS(=O)(=O)c1ccc(Oc2cc(F)cc(CN3CCN(C(=O)CNC(=O)C4CC45CCC(F)(F)CC5)CC3)c2)cc1` (stereo not drawn) [Compound 1459] had an IC50 of 200 nM.
